Read-outs that look alike come from different tables or passages of the source. Where no end group is shown, it is not given here.
Experiments:
HLA-DRB1*15:01 = target: T1, HLA-DRB1*15:01 (Homo sapiens, UniProt P01903+P01911); test: biochemical; assay type: binding
T1 construct: purchased Benaroya Research Institute, Seattle, Washington

HLA-DRB1*09:01 = HLA-DRB1*09:01 (Homo sapiens, UniProt P01903+P01911, A100R/A103E/D57H/D86V/F55Y/F60I/F76Y/I96F/K127E/L162R/M171V/P40D/Q125H/Q99R/R33Q/R42F/S133A/S66N/T210M/V115G/W38K/Y107V/Y59G/Y89S); test: HLA binding assay, DRB1*09:01
HLA-DRB1*03:01 = target: T2, HLA-DRB1*03:01 (Homo sapiens, UniProt P01903+P01911, A100K/A102G/A103R/A169T/F55Y/I96L/K41T/L162R/M171V/P40S/Q125H/Q178H/Q39Y/R42S/S66N/T106N/T262R/W38E/Y61H); test: HLA binding assay, DRB1*03:01
T2 construct: purchased Benaroya Research Institute, Seattle, Washington

HLA-DRB1*01:01 = target: T3, HLA-DRB1*01:01 (Homo sapiens, UniProt P01903+P01911, A100R/D57E/F55L/F60I/F76Y/I96L/L162R/M171V/P40L/Q125E/R42F/V115G/Y59C); test: HLA binding assay, DRB1*01:01
T3 construct: purchased Benaroya Research Institute, Seattle, Washington

HLA-DRB1*04:01 = target: T4, HLA-DRB1*04:01 (Homo sapiens, UniProt P01903+P01911, A100K/A169T/F76Y/I96L/K127E/L162R/M171V/N62H/P40V/Q125Y/R42H/S133A/S149N/S66Y/V115G/V209L/W38E); test: HLA binding assay, DRB1*04:01
T4 construct: purchased Benaroya Research Institute, Seattle, Washington

HLA-DRB1*11:01 = HLA-DRB1*11:01 (Homo sapiens, UniProt P01903+P01911, A100R/A169T/A87E/I96F/K41T/L162R/M171V/P40S/Q125H/Q178H/Q39Y/Q99D/R42S/S66Y/T262R/V115G/W38E); test: HLA binding assay, DRB1*11:01
Chain of HLA-DRB1*11:01 (P01903 26-254 limits assumed, other chains not shown): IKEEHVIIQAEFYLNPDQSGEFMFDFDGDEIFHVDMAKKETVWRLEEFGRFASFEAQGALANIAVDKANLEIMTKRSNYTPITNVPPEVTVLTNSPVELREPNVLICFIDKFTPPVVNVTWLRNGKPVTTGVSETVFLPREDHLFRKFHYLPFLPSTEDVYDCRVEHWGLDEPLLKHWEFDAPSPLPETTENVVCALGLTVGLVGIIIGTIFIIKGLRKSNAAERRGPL
HLA-DRB1*07:01 = HLA-DRB1*07:01 (Homo sapiens, UniProt P01903+P01911, A100R/A102G/A103Q/D57E/D86V/E43K/F76Y/K127E/L162R/M171V/P40G/Q125H/Q99D/R33Q/R42Y/R54Q/S133A/S66F/T210M/V115G/Y107V/Y59L/Y89S); test: HLA binding assay, DRB1*07:01
human CD4+ T cells = assay type: cell-based

EKMVSLLSVLLSM [NSP7-289]
IC50 (HLA-DRB1*15:01; read-out: HLA-DRB1 (IC50) *1501): 200 nM | IC50 (HLA-DRB1*09:01; read-out: HLA-DRB1 (IC50) *0901): 7790 nM | IC50 (HLA-DRB1*03:01; read-out: HLA-DRB1 (IC50) *0301): 31000 nM | IC50 (HLA-DRB1*01:01; read-out: HLA-DRB1 (IC50) *0101): 270 nM | IC50 (HLA-DRB1*04:01; read-out: HLA-DRB1 (IC50) *0401): 28800 nM | IC50 (HLA-DRB1*11:01; read-out: HLA-DRB1 (IC50) *1101): 3240 nM | IC50 (HLA-DRB1*07:01; read-out: HLA-DRB1 (IC50) *0701): 2680 nM

KSTYRVVSVLTVLHQD-NH2 [Tregitope 289z]
IC50 (HLA-DRB1*15:01): 2520 nM | IC50 (HLA-DRB1*09:01): 220 nM | IC50 (HLA-DRB1*03:01): 8990 nM | IC50 (HLA-DRB1*01:01): 160 nM | IC50 (HLA-DRB1*04:01): 650 nM | IC50 (HLA-DRB1*11:01): 480 nM | IC50 (HLA-DRB1*07:01): 200 nM

TT: TT (Astarte Biologics, cat no. 1002), stimulating antigen
increase of CD4+ T cell proliferation by TT stimulation (human CD4+ T cells): roughly 20 fold

From PMC10731459, “A SARS-CoV-2 NSP7 homolog of a Treg epitope suppresses CD4+ and CD8+ T cell memory responses” (Frontiers in Immunology, 2023)
